Experiments:
H1 and H9 hESCs [1] = assay: differentiation of day-6 CTB-like cells to EVTs, analysed at day 12; settings: for formation of EVTs, expression of EVT markers HLA-G and VE-Cadherin: agonist present during initial 6-day treatment, 12-day treatment; for formation of mesenchymal EVTs, compared among S1PR agonists: relative to the S1PR2 agonist
Text: (§1) Differentiation of hPSCs (6 days protocol). […] The medium was replaced every day.

H1 and H9 hESCs [2] = assay: differentiation of day-6 CTB-like cells to STB, analysed at day 14; settings: for formation of multinucleate STB expressing STB markers: agonist present during initial 6-day treatment, 14-day treatment; for formation of large multinucleated STB, compared among S1PR agonists: compared to the S1PR1 agonist
Text: as §1

H1 and H9 hESCs [3] = assay: 6-day differentiation of hESCs to CTB-like cells in chemically defined medium, marker expression by qPCR and immunofluorescence; settings: for immunofluorescence expression of trophoblast/CTB markers in CTB-like cells: day 6, S1P or replacing agonist with BMP4 and SB431542 in E7 medium
H9 and H1 hESCs = assay: 3-day differentiation of hESCs, quantitative image analysis of nuclear CDX2; assay type: cell-based, human; settings: day 3; BMP4 and SB431542 in E7 medium with S1PR3 agonist
Procedure: Differentiation of hPSCs to hPSC-TS^CDX2 and hPSC-TS cells. […] The medium was replaced every day. […] Alternatively, hPSCs after 2 or 3 days of differentiation were directly passaged into TSCM.
Immunofluorescence analysis.
Confocal image analysis. Image analysis was conducted using an image processing algorithm created in MATLAB. First, the DAPI stain was isolated, binarized, and processed to accurately represent the number of cells in each image. The primary-antibody stain of interest was isolated and processed in the same manner. Only primary-antibody pixels that overlap DAPI pixels were considered for analysis, and the average intensities of those pixels were measured and correlated to the nearest nuclei. This was performed for one control image and multiple experimental images. Each cell in the experimental images was considered positively stained if the average intensity of that cell was greater than the average intensity of all of the cells in the control image. Statistical analysis was done using a two-tailed t-test evaluating percent positive cells from different treatment periods.

[4] = day 6, qualitative immunofluorescence

Structure (SMILES) | formation of EVTs, expression of EVT markers HLA-G and VE-Cadherin (H1 and H9 hESCs [1]) | formation of mesenchymal EVTs, compared among S1PR agonists (H1 and H9 hESCs [1]) | formation of multinucleate STB expressing STB markers (H1 and H9 hESCs [2]) | intensity of CDX2 and P63 expression, compared among S1PR agonists (H1 and H9 hESCs [3]; [4]) | nuclear P63 expression, compared among S1PR agonists (H1 and H9 hESCs [3]; [4]) | immunofluorescence expression of trophoblast/CTB markers in CTB-like cells (H1 and H9 hESCs [3]) | formation of large multinucleated STB, compared among S1PR agonists (H1 and H9 hESCs [2]) | fraction of CDX2+ cells (H9 and H1 hESCs) | intensity of CDX2 and P63 expression, compared among S1PR agonists (H1 and H9 hESCs [3]; day 6, qualitative immunofluorescence, listed as S1PR3 agonist) | formation of EVTs upon removal of S1P (H1 and H9 hESCs [1]; S1P removed during hESC differentiation to CTB-like cells, identical differentiation conditions) | differentiation to STB in the absence of S1P (H1 and H9 hESCs [2]; S1P removed during initial 6-day treatment, syncytin and KRT7 staining) | gene expression of CTB markers CDX2 and ELF5 (H1 and H9 hESCs [3]; H1 and H9 hESCs, 6 days in E7 medium supplemented with S1P, with BMP4 and SB431542, compared to hESCs) | gene expression of neural and mesodermal markers (H1 and H9 hESCs [3]; H1 and H9 hESCs, after 6 days in E7 medium supplemented with S1P, with BMP4 and SB431542) | gene expression after 6 days of differentiation upon removal of S1P (H1 and H9 hESCs [3]; H9 and H1 hESCs, compared to 6-day treatment in the presence of S1P)
CCOc1ccc(-c2nc(-c3cccc4c3CCC4NCCO)no2)cc1OCC.Cl (stereo not drawn) [CYM5442 hydrochloride] | expression of the EVT markers HLA-G and VE-Cadherin | enhanced formation of mesenchymal EVTs | formation of multinucleate STB expressing KRT7 and hCG | higher | strongest | Expression of CDX2, GATA3, P63, and TEAD4 was observed | – | – | – | – | – | – | – | –
Cc1cc(C(=O)Cn2cc(C#N)ccc2=O)c(C)n1Cc1ccccc1 [CYM5520] | expression of the EVT markers HLA-G and VE-Cadherin | – | formation of multinucleate STB expressing KRT7 and hCG | lower expression of CDX2, strong cytoplasmic expression of P63, and high heterogeneity in staining | – | Expression of CDX2, GATA3, P63, and TEAD4 was observed | more pronounced | – | – | – | – | – | – | –
O=C(c1cc(C2CC2)on1)N(C1CCCCC1)C1CCCCC1 [CYM5541] | expression of the EVT markers HLA-G and VE-Cadherin | enhanced formation of mesenchymal EVTs | formation of multinucleate STB expressing KRT7 and hCG | higher | – | Expression of CDX2, GATA3, P63, and TEAD4 was observed | more pronounced | nearly all cells are CDX2^+ | high CDX2 expression | – | – | – | – | –
CCCCCCCCCCCCC/C=C/[C@@H](O)[C@@H](N)COP(=O)(O)O [S1P, sphingosine-1 phosphate] | expression of KRT7 and the EVT markers VE-Cadherin and HLA-G | – | formation of KRT7^+ multinucleate cells expressing the STB markers hCG and syncytin | – | – | confirmed expression of the pan-trophoblast marker KRT7, and CTB markers P63 and GATA3 | – | – | – | abolished formation of EVTs | did not occur | upregulation of the CTB markers CDX2 and ELF5 was observed | no significant changes in markers associated with neural or mesodermal differentiation | downregulation of the CTB marker CDX2 and upregulation of transcripts of neural and mesoderm markers
CCCCCCCCCCCCCCC[C@@H](O)[C@@H](N)COP(=O)(O)O [dhS1P, D-erythro-dihydrospingosine-1-phosphate] | EVT expressing HLA-G and VE-Cadherin were obtained | – | STB expressing KRT7 and hCG | – | – | CTB-like cells showed expression of CDX2, GATA3, P63, and TEAD4 | – | – | – | – | – | – | – | –

Source: patent US12545890B2, “Compositions and methods for derivation of trophoblast stem cells” (North Carolina State University, priority 2019, dated 2026)
